Data published in PubChem BioAssay AID602211 (Sanford-Burnham Center for Chemical Genomics, 2012).
The source made the active and inactive calls.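 How the source made its calls: active means mean IC50 at or below 10 µM; inactive means the rest.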

Test system: H9c2 cardiomyocytes, H2O2 protection, ATPLite viability, 2 h
Experiment: protection of H9c2 cardiomyocytes from H2O2 death, dose response, cell-based, ATPLite luminescence, set 2 (AID 602211);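 further: potency is for protection so actives keep ATP signal up against peroxide killing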

Compound | IC50
O=C(Nc1cccnc1)c1sc(Nc2ccccc2)nc1-c1ccccc1 | 8.72 µM
Cc1cc(N)n(-c2nc(-c3cccnc3)nc3ccccc23)n1 | 16.2 µM (inactive)
COc1cc(/C=c2\s/c(=C(/C#N)C(=O)N3CCCC3)n(-c3ccccc3)c2=O)ccc1O | 3.2 µM
CCN(C[C@H]1N[C@@](C)(C(=O)OC)[C@H]2C(=O)N(Cc3ccccc3)C(=O)[C@@H]12)C(=O)c1ccc(C(C)(C)C)cc1 | 6.25 µM
CCOc1cc(/C=C/c2ccc3cccc([N+](=O)[O-])c3n2)ccc1OCC(=O)N(C)C | 9.02 µM
COc1ccc(N(CC(=O)Nc2cccc(C(C)=O)c2)S(=O)(=O)c2ccc(NC(C)=O)cc2)cc1 | 3.03 µM
Cc1ccc(NC(=O)c2nc[nH]c2C(=O)NCCCCCCNC(=O)c2[nH]cnc2C(=O)Nc2ccc(C)cc2)cc1 | 3.93 µM
COC(=O)C1=C(C)N(CCc2ccc(OC)cc2)C(=O)C1 | 21.9 µM (inactive)
Cc1ccc2nsnc2c1S(=O)(=O)N(Cc1ccco1)Cc1cc2cccc(C)c2[nH]c1=O | 13.2 µM (inactive)
CCCn1nc(C(=O)Nc2nc(-c3ccccn3)cs2)c2ccccc2c1=O | 3.37 µM
CCCC(=O)Nc1nc2ccc(NC(=O)c3ccc(Br)o3)cc2s1 | 15.2 µM (inactive)
COc1ccc(NC(=O)c2cc(-c3ccc(OC)c(OC)c3)nc3ccccc23)c(OC)c1 | 8.09 µM
Nc1c(C(=O)N/N=C/c2cccnc2)oc2nc(-c3ccccc3)cc(-c3ccco3)c12 | 2.86 µM
CCOC(=O)C(Cc1ccc(NC(=O)/C(=C/c2ccc(OC(C)=O)cc2)NC(C)=O)cc1)N1C(=O)c2ccccc2C1=O (stereo not given) | 2.78 µM
O=C(c1ccco1)N1CCN(C(=O)c2cc(-c3ccncc3)nc3ccc(Br)cc23)CC1 | 13.8 µM (inactive)
N#Cc1ccccc1S(=O)(=O)N1CCN(c2nc(-c3cccnc3)nc3ccccc23)CC1 | > 79 µM (inactive)
CC(=NO)C1CCC2C3CCC4CC(=NO)CCC4(C)C3C(C)(O)CC12C (stereo not given) | > 79 µM (inactive)
COc1cccc(C(=O)Nc2c(C(N)=O)oc3ccccc23)c1 | 8.36 µM
Brc1ccc(-c2nn3c(-c4ccccn4)nnc3s2)o1 | 27.4 µM (inactive)
COc1ccccc1CN(C)C(=O)c1cc(-c2cc(OC)c(OC)c(OC)c2)nc2ccccc12 | > 79 µM (inactive)
COc1cccc(/C=N/NC(=O)c2oc3nc(-c4ccccc4)cc(-c4ccco4)c3c2N)c1 | 5.87 µM
C[C@H](CO)N1C[C@H](C)[C@@H](CN(C)C(=O)Nc2ccc3c(c2)OCO3)Oc2c(NC(=O)Nc3ccc(C(F)(F)F)cc3)cccc2C1=O | 40.3 µM (inactive)
CCC(=O)Nc1cccc(-c2nnc(-c3cccc(NC(=O)CC)c3)o2)c1 | 4.1 µM
CCOC(=O)C1CCN(C(c2cc3c(C)ccc(C)c3[nH]c2=O)c2nnnn2C2CCCCC2)CC1 (stereo not given) | > 79 µM (inactive)
Fc1ccc(CSc2ccc3nnc(-c4cccnc4)n3n2)cc1 | 6.22 µM

Compound | IC50
COc1cc(/C=C/c2nnc3c4ccccc4ncn23)cc(OC)c1OC | 4.47 µM
COc1ccc(CCCNC(=O)C2(C)Cc3c(-c4ccc(NC(C)=O)cc4)ccnc3O2)cc1 (stereo not given) | > 79 µM (inactive)
COCCNC(=O)COC(=O)c1ccc(OCC(=O)Nc2ccccc2OC)c(OC)c1 | 20.4 µM (inactive)
CCOC(=O)c1ccc(-c2ccc3ncnc(NCc4csc(C)n4)c3c2)o1 | > 79 µM (inactive)
C=CC[C@@H](CC(=O)N[C@H](CO)Cc1ccccc1)C(=O)N[C@@H](COC(=O)[C@@H](CC=C)CC(=O)OC(C)(C)C)Cc1ccccc1 | 12.3 µM (inactive)
CCn1c(O)c(/C=N/N=C/c2ccccc2)c2ccc(C3=NNC(=O)CC3)cc21 | 4.56 µM
COC(=O)c1cc(C(=O)OCC(=O)N2c3ccccc3NC(=O)C2(C)C)cc([N+](=O)[O-])c1 | 6.28 µM
CCc1nnc(NC(=O)CCC(=O)N2CCN(C3c4ccccc4-c4ccccc43)CC2)s1 | 12.9 µM (inactive)
COc1ccc(CSc2nc3ccccc3c(=O)[nH]2)cc1F | 8.59 µM
CN1CCc2nc3ccccc3c(C(=O)OCC(=O)N(CCC#N)c3ccccc3)c2C1 | 22.7 µM (inactive)
COc1ccc(/C=N/NC(=O)c2cc(-c3ccc4c(c3)OCO4)n[nH]2)cc1OC | 7.49 µM
COc1cccc(Nc2nc3ccccc3n3nnnc23)c1 | > 79 µM (inactive)
COc1ccc(-c2ccc3c(c2)S(=O)(=O)c2cccc(C(=O)NC[C@@H]4CCCO4)c2C3=O)cc1OC | 4.98 µM
O=C(CCCn1c(SCC(=O)c2ccc(O)c(O)c2)nc2ccccc2c1=O)NCC1CCCO1 (stereo not given) | 21.7 µM (inactive)
Cc1cc(C)c(S(=O)(=O)N2CCN(C(=O)c3cc(=O)[nH]c4ccccc34)CC2)c(C)c1 | 2.94 µM
CC(=O)Nc1cc(-c2ccc(C(=O)N3CCOCC3)cc2)cn2c(-c3ccc(C(C)=O)cc3)cnc12 | > 79 µM (inactive)
O=C(Nc1cccc(Cl)c1)c1nc[nH]c1C(=O)NCCCNC(=O)c1[nH]cnc1C(=O)Nc1cccc(Cl)c1 | 1.36 µM
COc1cc(-c2cc(NC(C)=O)c3ncc(-c4ccc(F)cc4)n3c2)cc(OC)c1OC | > 79 µM (inactive)
COc1ccccc1NC(=O)CSc1ccc2nnc(-c3ccc(C)cc3)n2n1 | 3.16 µM
CN(C)C(=O)/C=C\c1cn(-c2ccccc2)nc1-c1ccc2c(c1)OCCO2 | > 79 µM (inactive)
COc1cc(-c2cc(NC(C)=O)c3ncc(-c4cc(OC)c(OC)c(OC)c4)n3c2)cc(OC)c1OC | 3.85 µM
CNC(=O)COC(=O)/C=C/c1cn(-c2ccccc2)nc1-c1ccc(C)o1 | 6.31 µM
CC(=O)Nc1ccc(Nc2nc(-c3sc(NC(C)=O)nc3C)cs2)cc1 | 12.2 µM (inactive)
COc1cc(/C=C/C(=O)Nc2ccc3nc4n(c(=O)c3c2)CCCC4)cc(OC)c1OC | 13.3 µM (inactive)
NC(=O)c1nsc(C(=O)N(Cc2ccco2)C(C(=O)NCc2ccccc2)c2ccc(O)cc2)c1N (stereo not given) | 9.87 µM
